Patent publication US4975449A, “Topical treatment of glaucoma with 2-benzothiazolesulfonamide derivative” (University of Iowa Research Foundation, priority 1983, dated 1990)
“And” between values parts separate entries of the source, which are not always exact repeats. Identical values can stand only once. “Also recorded” adds a separate entry of the source.

Assays:
[1] = test system: rabbit eyes (intraocular pressure); assay: Rabbit Eye Tests (In-Vivo IOP Determinations), Water Loading Model; set-up: species or system New Zealand albino rabbits; details: for drop in IOP (right eye) compared to no drug control: 6-ethoxy-N-methyl: at 90 and 120 minutes, 6-chloro: 15 through 90 minutes, ethoxzolamide: any time point
Experimental: New Zealand albino rabbits either sex and weighing 1.9-2.4kg were used. Control IOP measurements were made by applanation tonometry (Alcon Applanation Pneumatonograph®) prior to water loading and drug administration. The rabbits were first anesthelized and then water loaded using 100 ml/kg (sterile water for injection). The water dose was given intraperitoneally over 15-20 minutes Four test formulations were administered topically to the right eye of each rabbit immediately following water loading. The vehicle was administered to the left eye of each rabbit. The test formulations contained 1% suspensions of ethoxzolamide, and the other indicated compounds, and a vehicle (coded E). The vehicle contained a pH 7.2 phosphate buffer and 0.05% polysorbate 80 (Tween-80®). IOP measurement were made in right and left eyes at 15, 30, […], 60, 90, 120 and 180 minutes after topical administration.

[2] = test system: rabbit eyes (intraocular pressure); assay: Salted Rabbit Test (IOP in rabbits fed a sodium enriched diet); assay type: in vivo, adult white rabbits; details: for IOP change, (IOPDET - IOPCET) - (IOPDEO - IOPCEO) / Difference in IOP between both eyes just prior to dosing (IOPDEO - IOPCEO): individual rabbit; for IOP change, (IOPDET - IOPCET) - (IOPDEO - IOPCEO): 1% w/v suspension topical; for Difference in IOP between both eyes just prior to dosing (IOPDEO - IOPCEO): t = 0, pre-dose; for Effectiveness in lowering IOP, comparison (in words): the two rabbit models of Examples 10 and 11
Experimental: The treated eye was selected randomly, whereas, the fellow eye received placebo; the observer was masked.
In particular, a 1% w/v suspension of 6-chloro-2-benzothiazolesulfonamide analog was prepared in a standard vehicle consisting of aqueous pH 7.8 phosphate buffer, 0.05% w/v tween 80, and sufficient NaC1 to make the preparation isotonic. One drop, followed by two drops each at one minute intervals, was applied to one eye of normal adult white rabbits. Fifteen rabbits were used in the experiment. The treated eye was selected randomly, whereas, the fellow eye received placebo. The observer was masked. The intraocular pressure (IOP) was measured with an Alcon […] pneumotonometer. A drop of local anesthetic was applied just prior to making the measurement. The IOP was measured in both rabbit eyes at 0, 30, 60, 90 and 120 minutes following instillation of the new antiglaucoma agent.

[3] = test system: rabbit eyes (intraocular pressure); assay: as above; assay type: in vivo, adult white rabbits; details: for Lowering of IOP (in words): 6-chloro: 30, 60 and 120 minutes, ethoxzolamide: any time point after dosing; for Statistical significance of IOP change: N.S. = non-significant; for Average IOP change: 1% w/v suspension topical; for Average difference in IOP between both eyes just prior to dosing: t = 0, pre-dose
[4] = 15 min after topical administration, 1% suspension, 50 ul q 2 min × 6, right eye
[5] = 30 min after topical administration, 1% suspension, 50 ul q 2 min × 6, right eye
[6] = 60 min after topical administration, 1% suspension, 50 ul q 2 min × 6, right eye
[7] = 90 min after topical administration, 1% suspension, 50 ul q 2 min × 6, right eye
[8] = 120 min after topical administration, 1% suspension, 50 ul q 2 min × 6, right eye
[9] = 180 min after topical administration, 1% suspension, 50 ul q 2 min × 6, right eye
[10] = time 0 min, baseline, 1% suspension topical to right eye

Row | Compound | drop in IOP (right eye) compared to no drug control [1] | IOP, right eye (R) [1, 4] [mmHg] | IOP, right eye (R) [1, 5] [mmHg] | IOP, right eye (R) [1, 6] [mmHg] | IOP, right eye (R) [1, 7] [mmHg] | IOP, right eye (R) [1, 8] [mmHg] | IOP, right eye (R) [1, 9] [mmHg] | IOP, right eye (R) [1, 10] [mmHg] | Paired t value of IOP change ([2]; 60 min) | Paired t value of IOP change ([2]; 120 min) | IOP change, (IOPDET - IOPCET) - (IOPDEO - IOPCEO) ([2]; 30 min) | IOP change, (IOPDET - IOPCET) - (IOPDEO - IOPCEO) ([2]; 60 min) | IOP change, (IOPDET - IOPCET) - (IOPDEO - IOPCEO) ([2]; 90 min) | IOP change, (IOPDET - IOPCET) - (IOPDEO - IOPCEO) ([2]; 120 min) | Difference in IOP between both eyes just prior to dosing (IOPDEO - IOPCEO) [2] | Effectiveness in lowering IOP, comparison (in words) [2] | Lowering of IOP (in words) [3] | Paired t value of IOP change ([3]; 30 min) | Paired t value of IOP change ([3]; 90 min) | Average IOP change ([3]; 30 min) | also measured
1 | CCOc1ccc2nc(S(=O)(=O)NC)sc2c1 [6-Ethoxy-N-methyl-2-benzothiazolesulfonamide] | significant drop | 19.10 | 19.90 | 20.33 | 18.57 | 17.24 | 17.00 | 14.10 | – | – | – | – | – | – | – | – | – | – | – | – | –
2 | CCOc1ccc2nc(S(N)(=O)=O)sc2c1 [Ethoxzolamide, reference compound] | no effect | 21.07 | 21.60 | 21.33 | 20.33 | 18.80 | 16.4 | 14.94 | 0.40 | 0.50 | +1 mm Hg and +2 mm Hg and -2 mm Hg and -3 mm Hg and 0 mm Hg | +3 mm Hg and -2 mm Hg and +2 mm Hg and +1 mm Hg and 0 mm Hg | +1 mm Hg and 0 mm Hg and +2 mm Hg and -2 mm Hg and -3 mm Hg | 0 mm Hg and -1 mm Hg and +2 mm Hg | +4 mm Hg and +1 mm Hg and -1 mm Hg and 0 mm Hg | no effectiveness | No lowering of IOP could be detected | 1.27 | 0.73 | -.17 mm Hg | Statistical significance of IOP change ([3]; 30 min): N.S.; Statistical significance of IOP change ([3]; 60 min): N.S.; Statistical significance of IOP change ([3]; 90 min): N.S.; Statistical significance of IOP change ([3]; 120 min): N.S.; Average IOP change ([3]; 60 min): +.33 mm Hg; Average IOP change ([3]; 90 min): -0 mm Hg; Average IOP change ([3]; 120 min): +.17 mm Hg; Average difference in IOP between both eyes just prior to dosing [3]: +.67 mm Hg
3 | NS(=O)(=O)c1nc2ccc(Cl)cc2s1 [6-Chloro benzothiazole-2-sulfonamide, 6-Chloro-2-benzothiazolesulfonamide] | significant drop | 19.72 | 20.00 | 21.39 | 19.11 | 18.78 | 17.8 | 14.33 | -2.106 | -2.11 | -3 mm Hg and -5 mm Hg and +1 mm Hg and 0 mm Hg and -4 mm Hg and -1 mm Hg and -2 mm Hg and +2 mm Hg | -2 mm Hg and -4 mm Hg and +1 mm Hg and -3 mm Hg and +2 mm Hg and -1 mm Hg and +3 mm Hg | -1 mm Hg and -2 mm Hg and +1 mm Hg and -3 mm Hg and +2 mm Hg and 0 mm Hg and +3 mm Hg | -2 mm Hg and -4 mm Hg and +3 mm Hg and -1 mm Hg and -5 mm Hg and 0 mm Hg and -6 mm Hg and +1 mm Hg | +1 mm Hg and +2 mm Hg and 0 mm Hg and +3 mm Hg and -2 mm Hg and -1 mm Hg and -3 mm Hg | pharmacologically active (lowered IOP) | small but significant reduction of intraocular pressure; also recorded: statistically significant | -1.834 | -1.63 | -0.93 mm Hg | Effectiveness (in words) ([1]; water loading model, topical): proved effective; Probability (1.t.) of IOP change ([3]; 30 min): 0.05; Probability (1.t.) of IOP change ([3]; 60 min): 0.025; Probability (1.t.) of IOP change ([3]; 90 min): 0.1; Probability (1.t.) of IOP change ([3]; 120 min): 0.025; Average IOP change ([3]; 60 min): -1.27 mm Hg; Average IOP change ([3]; 90 min): -0.87 mm Hg; Average IOP change ([3]; 120 min): -1.47 mm Hg; Average difference in IOP between both eyes just prior to dosing [3]: +0.27 mm Hg
